Laboratory results taken from patent publication US12186740B2, “Kits comprising containers with at least one solid catalytically active compound, and their uses in solid state reaction” (RD&C Research, Development & Consulting GmbH, priority 2018, dated 2025).
Read-outs that look alike come from different tables or passages of the source.

What was measured:
[1] = KMnO4 on aluminium oxide, dry; process times 60 to 300 minutes
[2] = after 60 minutes process time
[3] = 90 min, no additives
Protocol: As documented in literature clopidogrel bisulphate exists in one amorphous and two polymorphic forms, polymorph II was used for the experiments described. To elucidate the stability and detect changes of the polymorphic form after energy input a simple experimental set-up with the API and no further additives was executed and the polymorphic form was analysed by WAXS (wide-angel X-ray scattering) and DSC (differential scanning calorimetry).
These experiments could be used to evaluate the stability of various polymorphic forms in general, but could also indicate the stability/instability during industrial processing and manufacturing.

[4] = acidic stressor at 40° C./75% relative humidity for 3 months; cited from earlier work
[5] = Proof of concept: solid phase oxidation in a ball mill with a solid catalyst; type: physicochemical
Protocol: The first experiment was focused on a simple, well characterized API and other molecules with low structural complexity but with representative functional groups. They were systematically combined with a selection of potentially suitable catalysts. The solid phase reactions were initiated by ball milling for energy transfer in a controlled environment. In a first experimental set-up the oxidation in solid phase systems was analysed including a systematic evaluation of various catalysts, carrier matrices and reaction conditions.
The following analytical methods were implemented. Two solid phase oxidation reactions were prepared. The catalyst used was KMnO4 on silica and the active reaction container was a ball mill.

time-dependency of the degradation reaction [1] | quantity of degradation, solid phase conditions vs conventional forced degradation conditions ([2]; based on AUCs in the HPLC method) | acidic degradation product (RT 15 min) ([2]; solid phase set-up, acidic solid phase catalyst) | polymorphic form after milling (DSC profile) ([3]; milling 10 Hz) | oxidation product(s) formed ([5]; KMnO4 on silica, ball mill) | SMILES | follow-up or second line degradation products [1] | oxidative degradation products formed [1] | polymorphic form after milling (DSC profile) ([3]; milling 25 Hz) | acidic degradation product (RT 15 min) [4] | oxidation product(s) formed ([5]; on aluminium oxide)
clear time-dependency | comparable amount | could also be detected | minor changes and higher stability | – | COC(=O)[C@H](c1ccccc1Cl)N1CCc2sccc2C1 [clopidogrel bisulphate] | no follow-up or second line degradation products occurred | two oxidative solid phase degradation products | change of the polymorphic form II to the amorphous state | detected | –
– | – | – | – | diphenylsulfoxide and diphenylsulfone | c1ccc(Sc2ccccc2)cc1 [diphenylsulfide] | – | – | – | – | solely the higher oxidation state product diphenyl sulfone, but no diphenylsulfoxide
